US20020028851A1, “Guanylhydrazones and their use to treat inflammatory conditions” (priority 1994, published 2002)
Read-outs that look alike come from different tables or passages of the source. Blank lines part the entries; values can stand above or below the molecule they belong to.

Key:
RAW 264.7 cells [1] = experiment: Whole cell inhibition assay for urea output; type: cell-based, murine; details: for IC50: interpolated, γIFN+LPS-activated RAW 264.7, 18 hours, read-out: I.C.50 (in parenthesis), inhibition of urea production; for urea % suppression of induced production: γIFN+LPS, 18 hours
Description: (§1) RAW 264.7 cells are plated in microculture wells at 1×10^6/ml in RPMI 1640 with 10% FBS and otherwise standard culture conditions and allowed to adhere for 5 hours. They are then activated with 25 U/ml γIFN and 0.1 μg/ml LPS in the presence of test inhibitors. The urea concentration present in the supernatant media, after 18 hours of culture, is determined by a colorimetric blood urea nitrogen diacetylmonoxime assay performed on an aliquot of the culture supernatant (Sigma Chem. Co., St. Louis, Mo.) and inhibition is expressed as the percentage urea compared to that of a parallel control culture treated identically except that the concentration of added inhibitor is zero.
(§2) Various concentrations of the test compounds are included in the media of the stimulated RAW 264.7 cells in culture. The concentration of urea and/or nitrite after 18 hours of activated culture is determined and compared to the uninhibited control value obtained from at least one parallel culture. The fractional reduction is calculated for each concentration of inhibitor and the IC50 (concentration giving 50% reduction) is interpolated. Compounds were dissolved in media with mild heat (60° C.). Those with limited solubility were dissolved in base. The concentration of stock solutions of those compounds which were not completely soluble was determined by OD280.

RAW 264.7 cells [2] = experiment: Whole cell inhibition assay for arginine uptake; type: cell-based, murine; details: γIFN+LPS, 8 hours
Description: In the embodiment described in the working example herein, a test population of cells was cultured for about 3 hours so that the cells became firmly adherent. Various concentrations of the potential inhibitors were then added to parallel cultures. One hour later the macrophage stimulators, e.g. including, but not limited to LPS and γIFN, were added. Eighteen hours later the cells were washed in a warm balanced salt solution supplemented with glucose. Carrier-free radiolabelled arginine was added; after 5 minutes, active uptake of arginine was stopped by washing the cell three times with buffer, chilled to 0° C., containing 10 mM unlabeled arginine to displace any externally bound label. The contents of the washed cells are solubilized in 100 μl of formic acid and counted by standard techniques.
RAW 264.7 cells are plated in standard 96-well microculture plates at a concentration of 10^5/well and allowed to adhere for from 2 hours to overnight. The medium is then replaced with medium containing the compound to be tested. One hour later, the medium is supplemented so as to contain 25 U/ml γIFN and 0.1 μg/ml LPS and the cultures incubated a further. The cells are then rinsed twice in HEPES- buffered Krebs salt solution with 0.1% glucose. Carrier-free tetra-^3H-arginine is added to each well (2.5 μCi/well with specific activity of […]) and the active uptake of arginine is allowed to continue for a 5 minute period after which the cells are rapidly cooled to 0° C. by lavage with iced saline containing 10 mM unlabeled arginine to displace any externally bound label. The contents of the washed cells are solubilized in 100 Al of formic acid and counted by standard techniques. In subsequent experiments to determine the acitivity of the inhibitors, incubations were performed for 8 hours.
(§3) This section describes experiments that measure the concentration of Compound No. 14 needed to inhibit arginine uptake and NO output. The techniques employed were described in section 7.1 supra.

RAW 264.7 cells [3] = experiment: Whole cell inhibition assay for NO (nitrite) output; type: cell-based, murine; details: γIFN+LPS, 18 hours
Description: as §1
The production of nitrite is determined by assay of the same tissue culture supernatant by means of a calorimetric assay. Briefly, 4 parts of test solution containing 1% (w/v) sulfanilamide, 0.1% naphthylethylenediamine di-HCl (Griess Reagent), 2.5% H3PO4 and one part media are mixed, incubated for 10 minutes and the absorbance at 560 nm determined. The nitrite concentrations are interpolated from reference curves prepared using NaNO2.
as §2, §3

[4] = Solubility on preparing test solutions; type: physicochemical; details: preparation of test solutions
Description: as §2

melting point: 195 to 198 °C
SMILES: COc1ccc(C=NNC(=N)N)cc1OCCCCCOc1cc(C=NNC(=N)N)ccc1OC.Cl.Cl

melting point: 268 to 272 °C
SMILES: CC(=NNC(=N)N)c1cc(NC(=O)c2ccccc2)cc(C(C)=NNC(=N)N)c1.Cl.Cl

melting point: 294 to 297 °C
SMILES: CC(=NNC(=N)N)c1cc(NC(=N)NC(=N)N)cc(C(C)=NNC(=N)N)c1.Cl.Cl.Cl

melting point: 224 to 225 °C (dec.)
SMILES: CC(=O)c1ccc(NC(=O)NCCN(CCNC(=NNC(=N)N)Nc2ccc(C(C)=O)cc2)CCNC(=NNC(=N)N)Nc2ccc(C(C)=NNC(=N)N)cc2)cc1.Cl.Cl.Cl (hydrate or solvate)

melting point: 270 to 275 °C (dec.)
SMILES: CC(=O)c1cccc(NC(=NNC(=N)N)c2cc(C(=NNC(=N)N)Nc3cccc(C(C)=O)c3)cc(C(=NNC(=N)N)Nc3cccc(C(C)=O)c3)c2)c1.Cl.Cl.Cl (hydrate or solvate)

melting point: 245 to 246 °C (dec.)
SMILES: CC(=O)c1cc(NC(=O)NCCN(CCNC(=NNC(=N)N)Nc2cc(C(C)=NNC(=N)N)cc(C(C)=NNC(=N)N)c2)CCNC(=NNC(=N)N)Nc2cc(C(C)=NNC(=N)N)cc(C(C)=NNC(=N)N)c2)cc(C(C)=O)c1.Cl.Cl.Cl.Cl.Cl.Cl.Cl (hydrate or solvate)

melting point: 209 to 210 °C (dec.)
SMILES: CC(=O)c1ccc(NC(=O)NCCCN(CCCNC(=NNC(=N)N)Nc2ccc(C(C)=O)cc2)CCCNC(=NNC(=N)N)Nc2ccc(C(C)=NNC(=N)N)cc2)cc1.Cl.Cl.Cl (hydrate or solvate)

melting point: 250 to 251 °C (dec.)
SMILES: CC(=O)c1cc(NC(=O)NCCCN(CCCNC(=NNC(=N)N)Nc2cc(C(C)=NNC(=N)N)cc(C(C)=NNC(=N)N)c2)CCCNC(=NNC(=N)N)Nc2cc(C(C)=NNC(=N)N)cc(C(C)=NNC(=N)N)c2)cc(C(C)=O)c1.Cl.Cl.Cl.Cl.Cl.Cl.Cl (hydrate or solvate)

melting point: 258 to 259 °C
SMILES: CC(=O)c1cc(NC(=NNC(=N)N)NCC(C)CCCNC(=NNC(=N)N)Nc2cc(C(C)=NNC(=N)N)cc(C(C)=NNC(=N)N)c2)cc(C(C)=O)c1.Cl.Cl.Cl.Cl (stereo not shown) (hydrate or solvate)

IC50 (RAW 264.7 cells [1]; Mus musculus, RAW264.7): 10 µM
SMILES: CC(=NNC(=N)N)c1cc(C(C)=NNC(=N)N)cc(C(C)=NNC(=N)N)c1 [Compound 1, 1,3,5-triacetylbenzene tris(guanylhydrazone)]
urea % suppression of induced production (RAW 264.7 cells [1]; dose 10 μM): 60%
urea % suppression of induced production (RAW 264.7 cells [1]; dose 25 μM): 100%
arginine transport % suppression of induced peak (RAW 264.7 cells [2]; dose 1 μM): 0%
arginine transport % suppression of induced peak (RAW 264.7 cells [2]; dose 10 μM): 20%
arginine transport % suppression of induced peak (RAW 264.7 cells [2]; dose 25 μM): 40%
no2/no3 % suppression of induced production (RAW 264.7 cells [3]; dose 10 μM): 58%
no2/no3 % suppression of induced production (RAW 264.7 cells [3]; dose 25 μM): 72%

IC50 (RAW 264.7 cells [1]): 250 µM
SMILES: CC(=NNC(=N)N)c1ccc(-n2ccnc2)cc1.Cl [Compound 6, 2-([(1H-imidazol-1-yl)-1,4-phenylene]ethylidyne)hydrazinecarboximidamide hydrochloride]
urea % suppression of induced production (RAW 264.7 cells [1]; dose 50 μM): 0%
urea % suppression of induced production (RAW 264.7 cells [1]; dose 100 μM): 40%
urea % suppression of induced production (RAW 264.7 cells [1]; dose 1 mM): 100%

IC50 (RAW 264.7 cells [1]): 2000 µM
SMILES: CC(=NNC(=N)N)c1ccc(O)c(O)c1.Cl [Compound 7, 2-[(3,4-dihydroxyphenyl)-ethylidyne]hydrazinecarboximidamide hydrochloride]
urea % suppression of induced production (RAW 264.7 cells [1]; dose 10 μM): 23%
urea % suppression of induced production (RAW 264.7 cells [1]; dose 100 μM): 35%
urea % suppression of induced production (RAW 264.7 cells [1]; dose 1 mM): 40%
urea % suppression of induced production (RAW 264.7 cells [1]; dose 2 mM): 55%
urea % suppression of induced production (RAW 264.7 cells [1]; dose 10 mM): 100%

IC50 (RAW 264.7 cells [1]): 50 µM
SMILES: CC(=NNC(=N)N)c1ccc(NC(=O)Nc2ccc(C(C)=NNC(=N)N)cc2)cc1 [Compound 8, 4,4′-diacetyldiphenylurea bis(guanylhydrazone)]
urea % suppression of induced production (RAW 264.7 cells [1]; dose 50 μM): 76%
urea % suppression of induced production (RAW 264.7 cells [1]; dose 500 μM): 100%

IC50 (RAW 264.7 cells [1]): 10 µM
SMILES: CC(=NNC(=N)N)c1ccc(NC(=O)Nc2cc(C(C)=NNC(=N)N)cc(C(C)=NNC(=N)N)c2)cc1.Cl.Cl.Cl [Compound 9, N-(4-acetylphenyl)-N′-(3,5-diacetylphenyl)urea tris(amidinohydrazone) trihydrochloride]
urea % suppression of induced production (RAW 264.7 cells [1]; dose 1 μM): 0%
urea % suppression of induced production (RAW 264.7 cells [1]; dose 10 μM): 60%
urea % suppression of induced production (RAW 264.7 cells [1]; dose 25 μM): 100%
arginine transport % suppression of induced peak (RAW 264.7 cells [2]; dose 1 μM): 14%
arginine transport % suppression of induced peak (RAW 264.7 cells [2]; dose 10 μM): 32%
arginine transport % suppression of induced peak (RAW 264.7 cells [2]; dose 25 μM): 68%
no2/no3 % suppression of induced production (RAW 264.7 cells [3]; dose 1 μM): 0%
no2/no3 % suppression of induced production (RAW 264.7 cells [3]; dose 10 μM): 53%
no2/no3 % suppression of induced production (RAW 264.7 cells [3]; dose 25 μM): 71%

melting point: 187 to 191 °C
SMILES: CC(=O)c1cccc(NC(CCCC(=NNC(=N)N)Nc2cccc(C(C)=O)c2)=NNC(=N)N)c1.Cl.Cl [Compound 12, N,N′-bis(3-acetylphenyl)pentanediamide bis(amidinohydrazone) dihydrochloride]

IC50 (RAW 264.7 cells [1]): 10 µM
SMILES: CC(=NNC(=N)N)c1cc(NC(=O)CCCC(=O)Nc2cc(C(C)=NNC(=N)N)cc(C(C)=NNC(=N)N)c2)cc(C(C)=NNC(=N)N)c1.Cl.Cl.Cl.Cl [Compound 13, N,N′-bis(3,5-diacetyl-phenyl)pentanediamide tetrakis(amidinohydrazone) tetrahydrochloride]
urea % suppression of induced production (RAW 264.7 cells [1]; dose 10 μM): 45%
urea % suppression of induced production (RAW 264.7 cells [1]; dose 25 μM, compound as precipitate): 77%
urea % suppression of induced production (RAW 264.7 cells [1]; dose 25 μM, compound dissolved as solution): 100%
urea % suppression of induced production (RAW 264.7 cells [1]; dose 50 μM): 87%
urea % suppression of induced production (RAW 264.7 cells [1]; dose 500 μM): 100%
arginine transport % suppression of induced peak (RAW 264.7 cells [2]; dose 25 μM): 19%
arginine transport % suppression of induced peak (RAW 264.7 cells [2]; dose 50 μM): 7%
arginine transport % suppression of induced peak (RAW 264.7 cells [2]; dose 500 μM): 93%
no2/no3 % suppression of induced production (RAW 264.7 cells [3]; dose 25 μM): 43%
no2/no3 % suppression of induced production (RAW 264.7 cells [3]; dose 500 μM): 52%

IC50 (RAW 264.7 cells [1]): 10 µM
Dissolved in (solubility) [4]: Not soluble;
SMILES: CC(=NNC(=N)N)c1cccc(OCCOc2cccc(C(C)=NNC(=N)N)c2)c1.Cl.Cl [Compound 15, 2,2′-[1,2-ethanediylbis(oxy-3,1-phenyleneethylidyne)] bishydrazinecarboximidamide dihydrochloride]
urea % suppression of induced production (RAW 264.7 cells [1]; dose 5 μM): 8%
urea % suppression of induced production (RAW 264.7 cells [1]; dose 15.0 μM): 100%
urea % suppression of induced production (RAW 264.7 cells [1]; dose 150 μM): 100%
arginine transport % suppression of induced peak (RAW 264.7 cells [2]; dose 5 μM): 10%
arginine transport % suppression of induced peak (RAW 264.7 cells [2]; dose 15.0 μM): 35%
arginine transport % suppression of induced peak (RAW 264.7 cells [2]; dose 150 μM): 100%
no2/no3 % suppression of induced production (RAW 264.7 cells [3]; dose 5 μM): 0%
no2/no3 % suppression of induced production (RAW 264.7 cells [3]; dose 15.0 μM): 9%
no2/no3 % suppression of induced production (RAW 264.7 cells [3]; dose 150 μM): 100%

melting point: 285 to 286 °C
IC50 (RAW 264.7 cells [1]; Mus musculus, RAW264.7): 300 µM
SMILES: Cl.Cl.N=C(N)NN=C(CCC(=NNC(=N)N)c1ccccc1)c1ccccc1 [Compound 20, 2,2′-(1,4-diphenyl-1,4-butanediylidene)bishydrazinecarboximidamide dihydrochloride]
urea % suppression of induced production (RAW 264.7 cells [1]; dose 10 μM): 16%
urea % suppression of induced production (RAW 264.7 cells [1]; dose 50 μM): 19%
urea % suppression of induced production (RAW 264.7 cells [1]; dose 200 μM): 38%
urea % suppression of induced production (RAW 264.7 cells [1]; dose 400 μM): 100%
no2/no3 % suppression of induced production (RAW 264.7 cells [3]; dose 10 μM): 0%
no2/no3 % suppression of induced production (RAW 264.7 cells [3]; dose 50 μM): 0%
no2/no3 % suppression of induced production (RAW 264.7 cells [3]; dose 200 μM): 15%
no2/no3 % suppression of induced production (RAW 264.7 cells [3]; dose 400 μM): 84%
